From BigSolDB 2.1

C1=Cc2ccccc2Nc2ccccc21
solubility (mole fraction)
Details	278.15 K	283.15 K	288.15 K	293.15 K	298.15 K	303.15 K	308.15 K	313.15 K	318.15 K	323.15 K
in 1,4-dioxane	–	–	0.0312	0.0349	0.0392	0.0423	0.0481	0.052	0.058	0.0632
in DMAc	0.113	0.122	0.13	0.139	0.149	0.159	0.17	0.179	0.192	0.203
in DMF	0.109	0.116	0.122	0.129	0.136	0.144	0.153	0.161	0.169	0.178
in NMP	0.219	0.223	0.23	0.239	0.246	0.251	0.257	0.265	0.273	0.281
in acetone	0.0162	0.0178	0.0197	0.0219	0.0242	0.0268	0.0296	0.0327	0.0363	0.04
in acetonitrile	0.00245	0.00298	0.00345	0.00412	0.00489	0.00575	0.00676	0.00782	0.00933	0.0108
in ethyl acetate	0.01	0.0116	0.0133	0.015	0.0172	0.0193	0.0214	0.0243	0.0271	0.03
in isobutyl acetate	0.0105	0.0119	0.0132	0.0146	0.0161	0.0184	0.0206	0.023	0.0257	0.0285
in isopropyl acetate	0.00918	0.0104	0.0118	0.0133	0.0152	0.0168	0.0181	0.0202	0.0222	0.0249
in methyl acetate	0.00825	0.0092	0.0102	0.0118	0.0132	0.015	0.017	0.0192	0.0215	0.0239
in n-butyl acetate	0.0133	0.0152	0.0171	0.0189	0.0208	0.0236	0.0261	0.0289	0.0321	0.0362
in n-propyl acetate	0.0126	0.0143	0.0157	0.0175	0.0194	0.0215	0.0239	0.0267	0.0299	0.0331
